In patent US10155817B2, “Dual-target antibody targeting VEGFR-2 and DLL4 and pharmaceutical composition including same” (PharmAbcine Inc., priority 2012, dated 2018):

Key:
[1] = system: Notch-1; test: Promoter activity by Notch-1, luciferase reporter in LS174T cells co-cultured with 293-hDLL4; format: cell-based, human; settings: antibody 20 mg/ml, DAPT 5 mM, co-culture with 293-hDLL4 24 hours, luminescence, versus untreated antibody group, FIG. 9
Method: 1×10^5 LS174T cells (colon cancer cell line; ATCC, CL-188™) were incubated in RPMI medium containing 10% of fetal calf serum for 24 hours, and 0.8 μg of Notch Cignal reporter DNA contained in Cignal Reporter Assay Kit (#336841 CCS-014L, QIAGEN) and 2 μl of lipofectamine (#11668-500; Invitrogen) were mixed with 100 μl of opti-MEM media and allowed to stand for 20 minutes, and then 400 μl of opti-MEM was added for transfection to incubate cells for 6 hours. After 6 hours, the medium was replaced with an MEM medium containing 10% fetal calf serum, and incubated overnight. Next day, Tanibirumab and PMC-201 (each of 20 mg/ml) were mixed and pre-treated in 1×10^5 of 293-hDLL4 cells for 1 hour, then co-cultured with LS174T cells transfected with Notch Cignal reporter DNA for 24 hours. DAPT (5 mM) was not pre-treated and 293-hDLL4 cell was mixed with the transfected LS174T cells, and co-cultured for 24 hours.
After co-culture for 24 hours, cells were lyzed by using a lysis buffer contained in Dual-Luciferase Reporter Assay System (Cat. # E1910; Promega), and a substrate and ATP were mixed with each other, and then luminescence amount was measured by using Luminometer.

[2] = target: T1, human DLL4 (Homo sapiens, UniProt Q9NR61); test: Biacore affinity analysis to human DLL4; format: binding; settings: BIACORE 3000, CM5 chip, sample immobilized, DLL4 4.9-312.5 nM as antigen, FIG. 5
T1 construct: expressed in transfected cells; host or cells: 293 cells stably transfected with pcDNA-hDLL4 (293-DLL4 pool; clone 293-hDLL4)
Method: In order to calculate Kd (dissociation constant) of PMC-201 to human DLL4, BIACORE® 3000 (GE Healthcare) was used, and CM5 chip was used. The dissociation constant is similar to Km value, and is used as an affinity index of an enzyme to a substrate in an enzyme-substrate complex. The affinity between the enzyme and the substrate is increased as the dissociation constant is decreased.
The sample was immobilized by using 400 mM EDC (N-ethyl-N′-(dimethylaminopropyl) Carbodiimide), 100 mM NHS (N-Hydroxysuccinimide), and 1M ethanolamine hydrochloride (pH 8.5) that are an Amine Coupling Kit (GE Healthcare), and 20 mM sodium hydroxide as a generation buffer, and 1×PBS as an immobilization buffer were diluted, and then the analysis sample was 1:40 diluted in 10 mM acetate (pH 5.0) (GE Healthcare). The sample was immobilized at 4000RU (Response Unit). A buffer for measuring adsorption of the analysis sample was a HBS-EP buffer (GE Healthcare). DLL4s having measurement concentrations of 4.9, 9.7, 19.5, 39.1, 78.1, 156.3, 312.5 nM as an antigen were serial-diluted so as to have a final volume of 200 μl by using an HBS-EP buffer. Five concentrations of seven concentrations were selected and fitted. […] Affinity of the analysis sample was measured under conditions in which an analysis flow rate was 30 μl/min, a binding section was 60 seconds, and a dissociation was 300 seconds.

T1 sequence (Q9NR61 27-685): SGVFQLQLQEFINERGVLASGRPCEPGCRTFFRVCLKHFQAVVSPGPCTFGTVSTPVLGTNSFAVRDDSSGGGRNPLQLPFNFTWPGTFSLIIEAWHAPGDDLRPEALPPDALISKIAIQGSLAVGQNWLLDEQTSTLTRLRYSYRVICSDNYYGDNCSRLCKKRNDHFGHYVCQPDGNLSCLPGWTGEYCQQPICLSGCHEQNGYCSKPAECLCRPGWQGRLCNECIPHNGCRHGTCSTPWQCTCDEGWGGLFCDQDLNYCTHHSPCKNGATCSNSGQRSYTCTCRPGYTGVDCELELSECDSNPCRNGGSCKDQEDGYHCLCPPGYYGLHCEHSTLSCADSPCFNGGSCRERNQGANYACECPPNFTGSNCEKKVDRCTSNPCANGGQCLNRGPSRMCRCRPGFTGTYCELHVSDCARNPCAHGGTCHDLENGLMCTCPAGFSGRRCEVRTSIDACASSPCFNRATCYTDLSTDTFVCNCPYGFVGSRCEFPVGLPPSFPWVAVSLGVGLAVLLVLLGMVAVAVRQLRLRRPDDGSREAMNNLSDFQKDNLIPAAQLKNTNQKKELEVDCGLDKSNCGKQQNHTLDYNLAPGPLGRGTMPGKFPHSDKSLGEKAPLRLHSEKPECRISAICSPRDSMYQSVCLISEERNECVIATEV

Row | affinity (Kd, dissociation constant) to human DLL4 [2] | Molecule | promoter activation of NICD exhibited by Notch-1 activation of LS174T cells [1]
1 | – | C[C@H](NC(=O)Cc1cc(F)cc(F)c1)C(=O)N[C@H](C(=O)OC(C)(C)C)c1ccccc1 [DAPT, N—[N-(3,5-Difluorophenacetyl)-L-alanyl]-S-phenylglycine t-butyl ester] | decreased
2 | affinity was confirmed | Notch-1 Fc: Notch-1 Fc protein used as comparator for binding to hDLL4 (protein, left off: a dimerising Fc or GST) ARGPRCSQPGETCLNGGKCEAANGTEACVCGGAFVGPRCQDPNPCLSTPCKNAGTCHVVDRRGVADYACSCALGFSGPLCLTPLDNACLTNPCRNGGTCDLLTLTEYKCRCPPGWSGKSCQQADPCASNPCANGGQCLPFEASYICHCPPSFHGPTCRQDVNECGQKPGLCRHGGTCHNEVGSYRCVCRATHTGPNCERPYVPCSPSPCQNGGTCRPTGDVTHECACLPGFTGQNCEENIDDCPGNNCKNGGACVDGVNTYNCRCPPEWTGQYCTEDVDECQLMPNACQNGGTCHNTHGGYNCVCVNGWTGEDCSENIDDCASAACFHGATCHDRVASFYCECPHGRTGLLCHLNDACISNPCNEGSNCDTNPVNGKAICTCPSGYTGPACSQDVDECSLGANPCEHAGKCINTLGSFECQCLQGYTGPRCEIDVNECVSNPCQNDATCLDQIGEFQCICMPGYEGVHCEVNTDECASSPCLHNGRCLDKINEFQCECPTGFTGHLCQ | –
